Values of other authors in patent publication US20220378857A1, “COMPOSITION FOR THE CARDIOVASCULAR RISK REDUCTION” (NEILOS S.R.L., priority 2019, published 2022).
Where two headings read alike, the source gives them in different places.

[1] = 7.5 mg/die of active principle for 12 weeks
[2] = 11.4 mg/die of monacolin for 8 weeks

SMILES: CC[C@H](C)C(=O)O[C@H]1C[C@@H](C)C=C2C=C[C@H](C)[C@H](CC[C@@H]3C[C@@H](O)CC(=O)O3)[C@H]21 [monacolin, monacolin k]
- reduction in the levels of LDL cholesterol [1]: 22%
- reduction in the levels of total cholesterol [1]: 16%
- reduction in the levels of LDL cholesterol [2]: 26%
- reduction in the levels of total cholesterol [2]: 20%
